According to publication PMC9387934, “Randomized single oral dose phase 1 study of safety, tolerability, and pharmacokinetics of Iminosugar UV-4 Hydrochloride (UV-4B) in healthy subjects” (PLoS Neglected Tropical Diseases, 2022):
Where a name gives a salt, the structure may show the parent alone. Read-outs that look alike come from different tables or passages of the source.

Tests used:
CYP2A6 = test system: CYP2A6; set-up: method as in Investigator’s Brochure (IB); settings: in vitro; ref Investigator’s Brochure (IB); cited from earlier work
[1] = set-up: method as in Investigator’s Brochure (IB); settings: single oral dose, ferrets; ref Investigator’s Brochure (IB); cited from earlier work
CYP2D6 = test system: CYP2D6; set-up: method as in Investigator’s Brochure (IB); settings: in vitro; ref Investigator’s Brochure (IB); cited from earlier work
[2] = human, mouse, rat, and dog liver microsomes and hepatocytes; ref Investigator’s Brochure (IB); cited from earlier work
CYP2C9 = test system: CYP2C9; set-up: method as in Investigator’s Brochure (IB); settings: in vitro; ref Investigator’s Brochure (IB); cited from earlier work
CYP3A4/5 = test system: CYP3A4/5; set-up: method as in Investigator’s Brochure (IB); settings: ref Investigator’s Brochure (IB), cited from earlier work
[3] = cited from earlier work
[4] = cited from earlier work; remark: listed apart in the source
[5] = Reproductive toxicity upper limit study in rabbits, 13 days; assay type: in vivo, rabbit; settings: 50 mg/kg/day
Procedure: 7. Reproductive toxicity:
UV-4B has been evaluated for developmental and reproductive toxicity in fertility and early embryonic development in rats, embryo-fetal development in rats and rabbits, and pre- and postnatal development in rats. In male and female rats given UV-4B at 8, 20, and 50 mg/kg/day before mating and continuing through Gestation Day 13, a […]
observed at 50 mg/kg/day. […]
count but following a 21-week treatment-free period there was complete recovery in pregnancy and fertility indices However, decrease in testicular weight, sperm motility […]
identify the upper limit of reproductive toxicity, a dose of 50 mg/kg/day for 12 […]
In a study designed to identify the upper limit of reproductive toxicity, a dose of 50 […]
rabbit offspring. The rat and rabbit doses are equivalent to 486 and 966 mg/day, […]
In summary, findings that have been identified in the UV-4B toxicology studies so far include effects on the GI tract (including ulcers/erosions), lymphocytes and lymphoid tissue, reduction in PLT count, and increases in transaminases (AST>ALT). Findings were generally consistent across mouse, dog, and rat, apart from the isolated finding of swollen paws/legs and perioral appearance and red skin which was seen only in the rat. […]

[6] = dog; cited from earlier work
DENV-2 S221 = settings: ref Investigator’s Brochure (IB), cited from earlier work
[7] = mouse, cited from earlier work
[8] = set-up: method as in Investigator’s Brochure (IB); settings: ref Investigator’s Brochure (IB), cited from earlier work
DENV = settings: cited from earlier work
[9] = set-up: method as in Investigator’s Brochure (IB); settings: 50 mg/kg/day for 13 days; ref Investigator’s Brochure (IB); cited from earlier work
[10] = mice, Day 14, at NOAEL 300 mg/kg/day, ref Investigator’s Brochure (IB)
[11] = mouse, 25 TID mg/kg, Day 28 (Recovery)
[12] = mouse, 25 TID mg/kg, dosing phase (Day 14)
[13] = mouse, 100 TID mg/kg (NOAEL), Day 28 (Recovery)
[14] = dog, 2 TID mg/kg, Day 28 (Recovery)
[15] = dog, 10 TID mg/kg (NOAEL), Day 28 (Recovery)
[16] = dogs, 10 mg/kg/dose TID, ref Investigator’s Brochure (IB)
[17] = oral, first dose 1 hour before infection, TID for 7 days
[18] = 20 mg/kg TID, started 1 hour before infection, ref UV4-LIA-0004
[19] = 20 mg/kg TID, started 24 hours after infection, ref UV4-LIA-0003b
[20] = 20 mg/kg TID, started 24 hours after infection, ref UV4-LIA-0004
[21] = 20 mg/kg TID, started 48 hours after infection, ref UV4-LIA-0003b
[22] = 20 mg/kg TID, started 48 hours after infection, ref UV4-LIA-0004

## COCCCCCCCCCN1C[C@H](O)[C@@H](O)[C@H](O)[C@H]1CO [UV-4, N-(9’-methoxynonyl)-1-deoxynojirimycin]
CYP2A6
  Direct inhibition of CYP2A6: No clinically relevant direct inhibition
[1]
  t1/2: 2 h
CYP2D6
  Direct inhibition of CYP2D6: No clinically relevant direct inhibition
[2]
  Metabolic stability: metabolically stable
CYP2C9
  Direct inhibition of CYP2C9: No clinically relevant direct inhibition
CYP3A4/5; midazolam 1’-hydroxylase
  Direct inhibition of CYP3A4/5: No clinically relevant direct inhibition
CYP3A4/5; testosterone 6β-hydroxylase
  Direct inhibition of CYP3A4/5: weak direct inhibition
  Estimated IC50: > 191 µg/mL
CYP3A4/5; testosterone 6β-hydroxylase, read-out: Estimated IC50
  IC50: > 600 µM

## COCCCCCCCCCN1C[C@H](O)[C@@H](O)[C@H](O)[C@H]1CO [UV-4B, N-(9’-methoxynonyl)-1-deoxynojirimycin hydrochloride]
[3]; mice, 14 days of TID administration, ref Investigator’s Brochure (IB)
  NOAEL: 300 mg/kg/day
[3]; mice, 14 days, a NOEL was not present at this dose level, ref Investigator’s Brochure (IB)
  No observed effect level (NOEL): < 25 mg/kg/dose
[3]; [10]
  AUC(0-8): 54,435 ng•h/mL
  Mean Cmax: 32,617 ng/mL
[3]; [11]
  Decreased thymus weight (M): −
  Follicular epithelium vacuolation in thyroid: −
  Lymphoid depletion of the thymus (M): −
[3]; [12]
  Decreased thymus weight (M): ↓ (M)
  Lymphoid depletion of the thymus (M): P (M)
[3]; [13]
  Decrease in red cell mass (RBC Count, HGB, and HCT): −
  Decrease in thymus weight: −
  Follicular epithelium vacuolation in thyroid: −
  Lymphoid depletion in thymus: −
  Neutrophilic infiltration and erosion/ulcer rectum (F): −
[4]; [14]
  AST: −
  Decreased thymus weight: −
  Lymphocyte depletion: −
  PLT: −
[4]; dog, 10 TID mg/kg (NOAEL), Day 28 (Recovery), females
  Decreased thymus weight: −(F)
[4]; dog, 10 TID mg/kg (NOAEL), Day 28 (Recovery), males
  Decreased thymus weight: ↓(M)
[4]; [15]
  ALT: −
  AST: −
  Inverted AST/ALT ratio: −
  Lymphoid depletion in thymus, spleen, lymph nodes and GALT: −
  Nonformed feces: −
  PLT: −
  Reticulocyte count: −
  aPTT: −
[4]; [16]
  Increase in ALT: up to 2.9 x BL
  Increase in AST: up to 9.7 x BL
  Increase in aPTT: 2.2 x BL
[4]; dogs, 14 days of TID administration, ref Investigator’s Brochure (IB)
  NOAEL: 30 mg/kg/day
[4]; dogs, 14 days, lowest dose exceeded the NOEL, ref Investigator’s Brochure (IB)
  No observed effect level (NOEL): < 2 mg/kg/dose TID
[4]; dogs, 14 days, ref Investigator’s Brochure (IB)
  NOAEL: 10 mg/kg/dose TID
[4]; dogs, end of dosing phase, at NOAEL 30 mg/kg/day, ref Investigator’s Brochure (IB)
  Average (male and female) AUC(0-8): 10,940 ng•h/mL
[5]
  Human equivalent of the rabbit dose: 966 mg/day
[6]
  Dose with decreased PLTs: 2 mg/kg/dose, TID
  Dose with decreased arterial pulse pressure: > 50 mg/kg
  Dose with decreased reticulocytes: 10 mg/kg/dose, TID
  Dose with decreased systolic pressure: > 50 mg/kg
  Dose with decreased thymus weight: ≥ 2 mg/kg/dose, TID
  Dose with increased ALT: ≥ 2 mg/kg/dose, TID
  Dose with increased AST: ≥ 2 mg/kg/dose, TID
  Dose with increased aPTT: ≥ 10 mg/kg/dose, TID
  Dose with increased diastolic pressure: > 50 mg/kg
  Dose with inverted AST/ALT ratio: 10 mg/kg/dose, TID
  Dose with lymphocyte depletion in thymus, spleen, lymph nodes, and GALT: ≥ 2 mg/kg/dose, TID
  Dose with nonformed feces: ≥ 10 mg/kg/dose, TID
  Dose with salivation and vomitus: 60 mg/kg/dose, TID
  Neurologic Effects: none observed
DENV-2 S221; [17]
  50% effective dose: 5 mg/kg TID
  Minimal effective dose (90% survival rate): 10 mg/kg TID
DENV-2 S221; step-wise minimal effective dose and therapeutic window studies, start 24 or 48 hours after infection
  50% effective dose: 20 mg/kg TID
[7]; F
  Dose with lymphoid depletion in thymus: ≥ 25 mg/kg/dose, TID
[7]; M
  Dose with lymphoid depletion in thymus: 100 mg/kg/dose, TID
[7]; females (printed F100))
  Dose with neutrophilic infiltration and erosion/ulcer in rectum: 100 mg/kg/dose, TID
[7]; functional observational battery
  Neurologic Effects: no effect in FOB
[7]; printed (men)
  Dose with decrease in thymus weight: ≥ 25 mg/kg/dose, TID
  Dose with increased AST: ≥ 600 mg/kg/dose, TID
[7]; women [sic]
  Dose with decrease in thymus weight: 100 mg/kg/dose, TID
  Dose with increased AST: 600 mg/kg/dose, TID
[7]
  Cardiovascular Effects: none observed
  Dose with decrease in red cell mass, RBC count, HGB, and HCT: 100 mg/kg/dose, TID
  Dose with fecal abnormalities: > 250 mg/kg/dose, TID
[8]; male and female rats, 50 mg/kg/day before mating through Gestation Day 13
  Fertility finding: decreased pregnancy and fertility indices
[8]; rats, all doses (8, 20, and 50 mg/kg/day)
  Finding in males: decreased sperm motility
DENV; 2.5 mg/kg TID, ref UV4-LIA-0002
  Survival rate: 40%
DENV; 5 mg/kg TID, ref UV4-LIA-0002
  Survival rate: 50%
DENV; 20 mg/kg TID, started 1 hour before infection, all surviving at end of study, ref UV4-LIA-0003b
  Mean time to death (MTTD): more than 11 days
DENV; 20 mg/kg TID, started 1 hour before infection, ref UV4-LIA-0003b
  Survival rate: 100%
DENV; [18]
  Mean time to death (MTTD): 9.1 days
  Survival rate at 11 days post-infection: 30%
DENV; [19]
  Mean time to death (MTTD): 7 days
  Survival rate: 80%
DENV; [20]
  Mean time to death (MTTD): 10.5 days
  Survival rate at 11 days post-infection: 60%
DENV; [21]
  Mean time to death (MTTD): 9.3 days
  Survival rate: 70%
DENV; [22]
  Mean time to death (MTTD): 6 days
  Survival rate at 11 days post-infection: 40%
DENV; doses 2.5 to 40 mg/kg TID, first dose 1 hour prior to infection, ref UV4-LIA-0002
  Minimal effective dose (survival of 90% to 100%): 10 mg/kg TID
[9]
  Finding in rabbit offspring: skeletal and visceral malformations
